Laboratory results taken from US8030342B2, “Dendritic polyamidoamine phthalocyanine derivative” (Nihon University, priority 2006, dated 2011).
Values joined by “and” are separate entries in the source; they are usually repeats but may differ in a detail not shown here. Equal values may be shown once.

Key:
Assay type in all cases: physicochemical
UV-Vis spectra = experiment: UV-Vis spectra; design: λmax: unit not given here; settings: for λmax: UV-Vis absorption maxima; for log ε: UV-Vis, at the λmax of the same line
fluorescence spectra = settings: fluorescence maximum
ESR spectra = experiment: ESR spectra
Description: Also, the data on g value indicate that the dendritic PC generates radicals.

λmax (UV-Vis spectra) | Fmax (fluorescence spectra) | g value (ESR spectra) | log ε (UV-Vis spectra) | Molecule
687.50 and 654.00 and 624.50 | 625 and 700 | 1.9712 and 2.0245 |  | c1ccc2c(c1)-c1nc-2nc2[nH]c(nc3nc(nc4[nH]c(n1)c1ccccc41)-c1ccccc1-3)c1ccccc21 [H2—PC]
769.00 and 747.00 | 780 | 1.9713 and 2.0245 | 4.2560 and 4.2054 | O=C(O)c1cc2c(cc1C(=O)O)-c1nc-2nc2[n-]c(nc3nc(nc4[n-]c(n1)c1cc(C(=O)O)c(C(=O)O)cc41)-c1cc(C(=O)O)c(C(=O)O)cc1-3)c1cc(C(=O)O)c(C(=O)O)cc21.[Zn+2] [Zn—PC octacarboxylic acid, Zinc Phthalocyanine (PC) Octacarboxylic Acid]
655.50 and 607.00 | 715 | 1.9712 and 2.0245 | 4.5813 and 4.5391 | c1ccc2c(c1)C1=NC2=Nc2c3ccccc3c3[n]2[Zn][n]2c(c4ccccc4c2=NC2=NC(=N3)c3ccccc32)=N1 [Zn—PC]
690.50 and 772.50 | 805 | 2.0245 and 1.9713 |  | Zinc Phthalocyanine Tetracarboxylic Acid [Zn—PC tetracarboxylic acid]
